{"source": "patent US20030114482A1", "about": "“Use of retinoid receptor antagonists or agonists in the treatment of cartilage and bone pathologies” (priority 1999, published 2003)", "key": {"[1]": {"test_system": "RARE/β-galactosidase reporter construct in F9 teratocarcinoma cell line", "experiment": "F9 teratocarcinoma RARE/β-galactosidase reporter bioassay", "type": "cell-based", "method": "The β-gal assay consists of an F9 teratocarcinoma cell line stably transfected with a reporter construct which contains a 64 bp retinoic acid-response element (RARE) from the promoter region of the human RARβ gene (Ellis et al., Nature 343, 377-381 (1990)) placed immediately upstream of the E. coli lacZ gene. […] Cells were maintained on gelatin-coated dishes in modified L15 CO2 tissue culture medium (Specialty Media, Lavallette, N.J.) supplemented with 20% fetal calf serum and 0.8 mg/ml G418 (complete medium), and were used when 80-90% confluent.\nTo prepare tissue extracts, tissues were surgically isolated from Day 10 chick embryos and included. The metaphyseal-diaphyseal portion of cartilaginous humerus and tibia from which adherent perichondral tissues were carefully removed, liver, brain, gizzard and heart. During isolation, all tissues were kept in saline on ice under yellow safety light conditions to protect the retinoids. […]\nBriefly, cultures were fixed with 0.1% glutaraldehyde in 0.1 M phosphate buffer pH 7.0 for 15 min at room temperature. […] After rinsing again, cultures were extracted with 0.2 ml of DMSO and absorbance of the extracted material was determined at 655 nm using a Perkin-Elmer spectrophotometer. […]"}, "RARγ [2]": {"target": "T1, RARγ (Homo sapiens, UniProt P13631)", "T1 sequence (P13631 1-454)": "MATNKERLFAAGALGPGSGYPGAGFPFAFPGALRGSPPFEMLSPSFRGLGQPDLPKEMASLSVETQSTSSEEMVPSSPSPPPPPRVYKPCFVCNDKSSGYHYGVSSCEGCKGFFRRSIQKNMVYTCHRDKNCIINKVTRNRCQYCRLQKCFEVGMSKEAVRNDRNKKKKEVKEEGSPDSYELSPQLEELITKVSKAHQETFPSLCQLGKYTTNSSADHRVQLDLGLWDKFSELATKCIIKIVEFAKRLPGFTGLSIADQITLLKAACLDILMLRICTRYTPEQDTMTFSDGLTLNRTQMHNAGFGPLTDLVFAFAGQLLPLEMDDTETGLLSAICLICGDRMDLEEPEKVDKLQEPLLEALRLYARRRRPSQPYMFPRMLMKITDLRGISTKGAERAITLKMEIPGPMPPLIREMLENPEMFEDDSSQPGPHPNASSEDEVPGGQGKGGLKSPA", "experiment": "RAR antagonism, IC50 for RARγ (literature)", "type": "biochemical"}, "RARa, β and γ": {"test_system": "RARa, β and γ", "settings": "cited from earlier work"}, "RARγ [3]": {"target": "T1, RARγ", "settings": "cited from earlier work"}, "[4]": {"test_system": "humerus development (chondrocyte maturation, endochondral ossification)", "experiment": "Antagonist-filled bead implantation in chick embryo wing bud, humerus development", "type": "in vivo", "procedure": "This procedure was carried out as described previously (Noji et al., Acta Histochem. Cytochem. 23, 353-366 (1990); Koyama et al., Dev. Dynam. 203, 152-162 (1995)). Briefly, chick embryos or embryo parts were fixed with 4% paraformaldehyde for 4 hr or overnight, embedded in paraffin and sectioned. The 5 μm thick sections were pretreated with 1 μg/ml proteinase K (Sigma, St. Louis, Mo.) in 50 mM Tris, 5 mM EDTA, pH 7.5 at room temperature for 1 min, immediately postfixed in 4% paraformaldehyde buffer for 10 min, and then washed twice in PBS containing 2 mg/ml glycine for 10 min/wash. Sections were treated for 15 min with a freshly prepared solution of 0.25% acetic anhydride in triethanolamine buffer. Sections were hybridized with ^35S-labeled antisense or sense chick cDNA riboprobes (approximately 1×10^6 DPM/section) at 50° C. for 16 hr. After hybridization, slides were washed three times with 2×SSC containing 50% formamide at 50° C. for 20 min/wash, treated with 20 μg/ml RNaseA for 30 min at 37° C., and finally washed three times with 0.1×SSC at 50° C. for 10 min/wash. Sections were coated with Kodak NTB3 emulsion diluted 1:1 with water, exposed for 7 days, and developed with Kodak D19 for 3 min at 20° C. After staining with hematoxylin and eosin, slides were analyzed with a Nikon microscope using bright and dark field optics.\nThis range of concentrations was based on previous studies (see, for example, Lu et al., Development 124, 1643-1651 (1997)). Antagonist solutions were prepared in DMSO and used under yellow light conditions; control beads were soaked in DMSO alone. Beads were then dipped very briefly in phenol red-containing saline (HBSS) so that they were more readily visible during implantation.\nAntagonist-containing or control beads were implanted in the wing bud of stage 21-22 (Day 3-3.5) or stage 27-28 (Day 5.5) chick embryos (Hamburger and Hamilton, J. Morphol. 88, 49-92 (1951)); contralateral wing bud served as control. A small window was opened in the egg shell and a small incision was made on the antero-dorsal proximal portion of the bud. One bead or several beads were then placed in the vicinity of the prospective humerus as specified below, and eggs were sealed and returned to the incubator. On the day of analysis, embryos were sacrificed by decapitation, and control and operated wings were examined by microscopy, using a Nikon SMZ-U dissecting photomicroscope, and humerus length was measured micrometrically. Because length of control humeri varied slightly from embryo to embryo, possibly reflecting slight differences in age, humeri were considered affected by antagonist treatment only if their length was shortened at least 25% over control value. Companion control and antagonist-treated limbs were processed for histology and in situ hybridization using tissue sections.\nHaving shown that RAR gene expression changes during chondrocyte maturation and that the cartilaginous elements as well as their surrounding perichondrial tissues contain endogenous retinoids, experiments were carried out to determine what roles the RARs and their ligands may play during chondrocyte maturation and skeletogenesis (see Example I, Antagonist Treatment). To approach this question, a bead containing retinoid antagonists was implanted in the vicinity of the prospective humeral mesenchymal condensation in stage 21-22 (Day 3-3.5) chick embryos and determined whether humerus development had been impaired by Day 10 in vivo."}, "[5]": {"test_system": "cephalic core sternal chondrocytes", "experiment": "Cultured cephalic core sternal chondrocytes, alkaline phosphatase and type X collagen gene expression", "type": "cell-based, chick", "procedure": "(§1) Cell populations rich in prehypertrophic and early hypertrophic chondrocytes were isolated from the cephalic core region of Day 17-18 chick embryo sterna, while immature chondrocytes were isolated from the caudal sternal region (Gibson and Flint, J. Cell Biol. 101, 277-284 (1985); Pacifici et al., Exp. Cell Res. 195, 38-46 (1991); Iwamoto et al., Exp. Cell Res. 207, 413-420 (1993b)). The dissected cephalic and caudal tissues were incubated for 1 hr at 37° C. in saline containing 0.1% type 1-S collagenase (Sigma Chemical Co., St. Louis, Mo.); the cells released after this incubation were discarded as they consisted mainly of perichondrial and blood cells. The remaining tissue was incubated in a fresh mixture of 0.25% trypsin and 0.1% collagenase for 3 hr at which point it was completely digested. The freshly isolated chondrocytes were plated at a density of 2×10^5 cells/well in 12-well plates, 1×10^6 cells/60 mm dish or 3×10^6 cells/100 mm dish. The cephalic core chondrocytes were grown continuously, without subculturing, for 2 to 3 weeks in monolayer. During the first 2 days, cultures received 4 U/ml of testicular hyaluronidase to minimize cell detachment (Leboy et al., J. Biol. Chem. 264, 17281-17286 (1989)), and cultures became confluent by 2 weeks. The caudal immature chondrocytes were first grown for 5 days at which point floating immature chondrocytes were separated from attached contaminating fibroblastic cells. The floating cells were trypsinized and replated in secondary cultures in the presence of hyaluronidase to increase cell attachment. Cultures were fed every other day with Dulbecco's modified high-glucose Eagle's medium (GIBCO BRL, Gaithersburg, Md.) containing 10% defined fetal calf serum (Hyclone, Logan, Utah), 2 mM L-glutamine, and 50 U/ml penicillin and streptomycin (Pacifici et al., Exp. Cell Res. 195, 38-46 (1991)). When indicated, cultures were treated with all-trans-RA (Sigma) or combinations of all-trans-RA and Ro 41-5253. Stock solutions of these retinoids were prepared in DMSO and were diluted into working solutions in 95% ethanol; control dishes received an equivalent amount of vehicle without retinoids. To analyze mineralization, cephalic sternal control and retinoid-treated cultures were supplemented with 3 mM β-glycerophosphate to serve as a phosphate source. During these various regimens, medium was changed daily. To localize calcium deposits, the cell layers were stained with 0.5% alizarin red S solution, pH 4.0, for 5 min at room temperature. In experiments in which cultures were treated for 2, 4 or 6 days, retinoid treatments were initiated so that all cultures (including control cultures) were harvested simultaneously. […]"}, "[6]": {"test_system": "cephalic core sternal chondrocytes", "experiment": "Mineralization of cultured cephalic core sternal chondrocytes, alizarin red staining", "type": "cell-based, chick", "settings": "6 days", "procedure": "as §1, with “41-5253.” for “41-5253. Stock solutions of these retinoids were prepared in DMSO and were diluted into working solutions in 95% ethanol; control dishes received an equivalent amount of vehicle without retinoids. To analyze mineralization, cephalic sternal control and retinoid-treated cultures were supplemented with 3 mM β-glycerophosphate to serve as a phosphate source. During these various regimens, medium was changed daily. To localize calcium deposits, the cell layers were stained with 0.5% alizarin red S solution, pH 4.0, for 5 min at room temperature. In experiments in which cultures were treated for 2, 4 or 6 days, retinoid treatments were initiated so that all cultures (including control cultures) were harvested simultaneously.”"}, "[7]": {"test_system": "caudal sternal chondrocytes", "experiment": "Cultured immature caudal sternal chondrocytes, Northern blot of type X collagen", "type": "cell-based, chick", "procedure": "as §1, with “41-5253.” for “41-5253. Stock solutions of these retinoids were prepared in DMSO and were diluted into working solutions in 95% ethanol; control dishes received an equivalent amount of vehicle without retinoids. To analyze mineralization, cephalic sternal control and retinoid-treated cultures were supplemented with 3 mM β-glycerophosphate to serve as a phosphate source. During these various regimens, medium was changed daily. To localize calcium deposits, the cell layers were stained with 0.5% alizarin red S solution, pH 4.0, for 5 min at room temperature. In experiments in which cultures were treated for 2, 4 or 6 days, retinoid treatments were initiated so that all cultures (including control cultures) were harvested simultaneously.”"}, "[8]": {"test_system": "RARE/β-galactosidase reporter construct in F9 teratocarcinoma cell line", "settings": "cited from earlier work"}, "[9]": {"settings": "beads implanted Day 5.5, examined Day 8.5"}}}
{"compound": "CC1=C(/C=C/C(C)=C\\C=C\\C(C)=C\\C(=O)O)C(C)(C)CCC1", "note": "[9-cis-RA]", "values": [{"measurement": "efficiency of stimulating transcription, fold lower than all-trans-RA", "setting": "[1]; F9 reporter cells, unpublished observations", "value": 10, "unit": "fold"}]}
{"compound": "Cc1ccc(C2=CCC(C)(C)c3ccc(C#Cc4ccc(C(=O)O)cc4)cc32)cc1", "note": "[AGN 109]", "values": [{"measurement": "fold lower IC50 for RARγ compared to Ro 41-5253", "setting": "RARγ [2]", "value": "~500", "unit": "fold"}, {"measurement": "antagonism across RAR isotypes (selectivity in words)", "setting": "RARa, β and γ", "value": "inhibits equally well RARa, β and γ"}, {"measurement": "IC50", "setting": "RARγ [3]", "value": 5, "unit": "nM"}, {"measurement": "embryos with inhibited humerus development", "setting": "[4]; 3-4 beads implanted Day 5.5 (stage 28), examined Day 8.5", "value": "6/7"}, {"measurement": "chondrocyte maturation and endochondral ossification in treated humerus (histology, in situ hybridization)", "setting": "[4]; bead implanted at early stage, Day 10 humeri", "value": "chondrocyte maturation and long bone development are interrupted"}, {"measurement": "concentration required for high frequency of humeral defects, relative to Ro 41-5253", "setting": "[4]; bead implanted stage 21-22, Day 10", "value": "much lower concentrations"}, {"measurement": "hypertrophy and RARγ / type X collagen transcripts in treated humeri", "setting": "[4]; [9]", "value": "had not advanced to the hypertrophic stage and lacked transcripts encoding RARγ and type X collagen"}, {"measurement": "type II collagen expression in treated humeri (cell viability and differentiated functions)", "setting": "[4]; [9]", "value": "very strong expression of type II collagen"}, {"measurement": "delay of humerus development (reversibility)", "setting": "[4]; beads implanted stage 28 (Day 5.5), examined Day 14", "value": "about 5 days"}, {"measurement": "inhibition of humerus development", "setting": "[4]; single bead implanted Day 5.5 (stage 28), examined Day 8.5 (5/5)", "value": "not very effective"}]}
{"compound": "CCCCCCCOc1cc2c(cc1/C(C)=C/c1ccc(C(=O)O)cc1)C(C)(C)CCS2(=O)=O", "note": "[Ro 41-5253]", "values": [{"measurement": "alkaline phosphatase and type X collagen gene expression, antagonist alone", "setting": "[5]; antagonist alone", "value": "no major effects"}, {"measurement": "effect on all-trans-RA responses of alkaline phosphatase and type X collagen genes", "setting": "[5]; co-treatment with 50 nM all-trans-RA, Ro 41-5253 at 500 nM", "value": "counteracted"}, {"measurement": "mineralization on co-treatment with all-trans-RA", "setting": "[6]; 500 nM with 25 or 50 nM all-trans-RA", "value": "almost no mineralization"}, {"measurement": "mineralization, antagonist alone", "setting": "[6]; antagonist alone", "value": "had no effects"}, {"measurement": "type X collagen transcripts, antagonist alone", "setting": "[7]; antagonist alone", "value": "did not have major effects"}, {"measurement": "effect on all-trans-RA-induced increase in type X collagen transcripts", "setting": "[7]; co-treatment 500 nM with 50 nM all-trans-RA", "value": "significantly, though not totally, blocked"}, {"measurement": "antagonism across RAR isotypes (selectivity in words)", "setting": "RARa, β and γ", "value": "antagonistic effects on all RAR isoforms but preferentially on RARa"}, {"measurement": "IC50", "setting": "RARγ [3]", "value": 3300, "unit": "nM"}, {"measurement": "humerus shortening versus control contralateral humerus", "setting": "[4]; bead implanted stage 21-22, Day 10 embryos", "value": "about 50%"}]}
{"compound": "CC1=C(/C=C/C(C)=C/C=C/C(C)=C/C(=O)O)C(C)(C)CCC1", "note": "[all-trans-RA]", "values": [{"measurement": "alkaline phosphatase gene expression", "setting": "[5]; 50 nM", "value": "increased dramatically"}, {"measurement": "type X collagen expression", "setting": "[5]; 50 nM, 6 days of treatment", "value": "essentially eliminated"}, {"measurement": "mineral deposition (alizarin red)", "setting": "[6]; 25 or 50 nM, with β-glycerophosphate", "value": "abundant alizarin red-stainable mineral"}, {"measurement": "type X collagen transcripts", "setting": "[7]; 50 nM, 2, 4 or 6 days", "value": "marked time-dependent increase"}, {"measurement": "β-galactosidase reporter response (histochemical)", "setting": "[1]; 3 nM, 24 hr, positive control", "value": "positive"}, {"measurement": "lowest exogenous concentration to which reporter cells are very sensitive (high expression of β-gal)", "setting": "[8]", "value": 10, "unit": "pM"}]}
